Entries after “also recorded” stand apart in the source; their conditions may differ. Numbered stars: 1 amine (or outer) side, 2 acyl side, 3 side chain; on linkers, the order of the positions; unused ones are H or OH. Bridge positions count the residues as written; N and C are the ends. Square brackets hold non-standard residues; d marks the D form. Peptide text beside a SMILES is read from it. I, II: the chains in the order shown. Actinocin(9to1) = Cc1c2oc3c(C)ccc(C(=O)[*:1])c3nc-2c(C(=O)[*:2])c(N)c1=O; NMeV = CN[C@H](C(=O)O)C(C)C; Sar = CNCC(=O)O
What was measured:
EDD mRNA = assay: Northern analysis of EDD mRNA in progestin-treated T-47D cells; assay type: cell-based, human
Procedure: (§1) The sources and maintenance of the human breast cancer and normal cell lines used were as described previously (12, 22), as were tissue culture experiments (12). Briefly, progestin (ORG 2058, 10 nM) and/or cycloheximide (20 μg/ml) or actinomycin D (5 μg/ml) was added to the medium and control flasks received the same volume of vehicle alone. To obtain RNA for differential display, cells were grown in insulin-supplemented serum-free medium and treated for 3 h with ORG 2058 or ethanol vehicle. Subsequent progestin stimulation experiments were carried out in medium containing 5% charcoal-stripped fetal calf serum without insulin.
Cells harvested from duplicate 150 cm^2 flasks were pooled, RNA extracted by a guanidinium-isothiocyanate-cesium chloride procedure and Northern analysis was performed as previously described with 20 μg of total RNA per lane (3, 23). The membranes were hybridized overnight (50° C.) with probes labelled with [a-^32P]dCTP (Amersham Australia Pty Ltd) using a Prime-a-Gene labelling kit (Promega Corp., Sydney, Australia). The membranes were washed at a highest stringency of 0.2 ¥ SSC (30 mM NaCl, 3 minN sodium citrate [pH 7.0])/1% sodium dodecyl sulfate at 65° C. and exposed to Kodak X-OMAT or BIOMAX film at −70° C. Human multiple tissue Northern blots or RNA Master blot (CLONTECH Laboratories Inc., Palo Alto, Calif.) were hybridized under conditions recommended by the manufacturer. The MRNA abundance was quantitated by densitometric analysis of autoradiographs using Molecular
Dynamics Densitometer and software (Molecular Dynamics, Sunnyvale, Calif.). The accuracy of loading was estimated by re-hybridizing membranes with a [g-^32P]ATP end-labelled oligonucleotide complementary to 18S rRNA (24, 25).

T-47D cells = details: ORG 2058, same conditions, reference (3); cited from earlier work
EDD = assay: Differential display RT-PCR of T-47D cells treated with ORG 2058; assay type: cell-based, human; details: ORG 2058 for 3 h
Procedure: as §1
Differential display was carried out as previously described (11) using a Heiroglyph mRNA Profile Kit No. 1 (Genomyx Corporation, Foster City, Calif.) and recommended protocol. First strand cDNA synthesis was carried out in 96-well format 0.2 ml thin walled tubes. Typically 200 ng total RNA from T-47D cells treated with the synthetic progestin ORG 2058 for 3 h or from control T-47D cells was reverse transcribed with Expand Reverse Transcriptase enzyme (Boehringer Mannheim Pty Ltd, Castle Hill, Australia) following annealing with 4 pmol anchored primer (5′[…]12AC (SEQ ID NO:6)). […] The PCR products were denatured and separated on a 4.5% denaturing polyacrylamide gel at 800 v for 16 h using the Genomyx Long Read Sequencing System reagents and apparatus. […]

[1] = molecular target: T1, GST-ubiquitin fusion protein (Homo sapiens, UniProt P0CG47); assay: Ubiquitin-binding assay (thiol ester formation); assay type: biochemical; details: in vitro translated 35S-labelled protein, absence of DTT; abolished by 100 mM DTT
T1 construct: purified GST-ubiquitin fusion protein
Procedure: [^35S]-labelled in vitro translated truncated (˜100 kDa) or full length protein was tested for its ability to bind ubiquitin by incubating 5 μl translation reaction with or without 5 μg purified GST protein or GST-ubiquitin fusion protein for 10 min at 25° C. […] Reactions were terminated by incubating the mixtures in either SDS-sample buffer containing 100 mM DTT at 95° C. for 5 min or in SDS-sample buffer containing 4 M urea instead of DTT at 25° C. for 20 min. Samples were resolved by SDS-PAGE through 6% or 7% gels followed by drying and autoradiography.

## C[C@@H]1C[C@@H]([C@H](O)CC2CC(=O)NC(=O)C2)C(=O)[C@@H](C)C1 [cycloheximide, Cycloheximide]
EDD mRNA; 10 nM ORG 2058 with cycloheximide (20 μg/ml), 1 h
  effect on ORG 2058 induction of EDD mRNA levels: prevented

## Cc1c2oc3c(C)ccc(C(=O)N[C@@H]4C(=O)N[C@H](C(C)C)C(=O)N5CCC[C@H]5C(=O)N(C)CC(=O)N(C)[C@@H](C(C)C)C(=O)O[C@@H]4C)c3nc-2c(C(=O)N[C@@H]2C(=O)N[C@H](C(C)C)C(=O)N3CCC[C@H]3C(=O)N(C)CC(=O)N(C)[C@@H](C(C)C)C(=O)O[C@@H]2C)c(N)c1=O [actinomycin D, Actinomycin D] (I: T[dV]P[Sar][NMeV] / II: T[dV]P[Sar][NMeV]; ester I:1-I:C, II:1-II:C; linker I:N-II:N via Actinocin(9to1))
EDD mRNA; 10 nM ORG 2058 with actinomycin D (5 μg/ml), 3 h
  effect on ORG 2058 induction of EDD mRNA levels: blocked

## CCC1CC2C3CCC4=CC(=O)CCC4C3CCC2(C)C1C(=O)CO (stereo not drawn) [ORG 2058, 16a-ethyl-21-hydroxy-19-norpregn-4-en-3,20-dione]
T-47D cells
  time of increase in the S phase fraction: 12 to 14 h
EDD
  abundance of EDD DD-PCR product, treated versus control: more abundant in treated samples than in control samples; also recorded: present at a higher level
EDD mRNA; progestin (ORG 2058), observed at 6 h, transient
  maximal EDD mRNA levels above control: 3 to 4 fold

B1: truncated EDD: 890 amino acid truncated EDD protein, aa 1910 to aa 2799, carboxyl terminus with HECT domain (protein)
chain: MMSARGDFLNYALSLMRSHNDEHSDVLPVLDVCSLKHVAYVFQALIYWIKAMNQQTTLDTPQLERKRTRELLELGIDNEDSEHENDDDTNQSATLNDKDDDSLPAETGQNHPFFRRSDSMTFLGCIPPNPFEVPLAEAIPLADQPHLLQPNARKEDLFGRPSQGLYSSSASSGKCLMEVTVDRNCLEVLPTKMSYAANLKNVMNMQNRQKKEGEEQPVLPEETESSKPGPSAHDLAAQLKSSLLAEIGLTESEGPPLTSFRPQCSFMGMVISHDMLLGRWRLSLELFGRVFMEDVGAEPGSILTELGGFEVKESKFRREMEKLRNQQSRDLSLEVDRDRDLLIQQTMRQLNNHFGRRCATTPMAVHRVKVTFKDEPGEGSGVARSFYTAIAQAFLSNEKLPNLECIQNANKGTHTSLMQRLRNRGERDREREREREMRRSSGLRAGSRRDRDRDFRRQLSIDTRPFRPASEGNPSDDPEPLPAHRQALGERLYPRVQAMQPAFASKITGMLLELSPAQLLLLLASEDSLRARVDEAMELIIAHGRENGADSILDLGLVDSSEKVQQENRKRHGSSRSVVDMDLDDTDDGDDNAPLFYQPGKRGFYTPRPGKNTEARLNCFRNIGRILGLCLLQNELCPITLNRHVIKVLLGRKVNWHDFAFFDPVMYESLRQLILASQSSDADAVFSAMDLAFAIDLCKEEGGGQVELIPNGVNIPVTPQNVYEYVRKYAEHRMLVVAEQPLHAMRKGLLDVLPKNSLEDLTAEDFRLLVNGCGEVNVQMLISFTSFNDESGENAEKLLQFKRWFWSIVEKMSMTERQDLVYFWTSSPSLPASEEGFQPMPSITIRPPDDQHLPTANTCISRLYVPLYSSKQILKQKLLLAIKTKNFGFV
[1]
  formation of GST-ubiquitin / ubiquitin thioester conjugate: an additional higher molecular mass protein band was observed

— patent US7105652B2, “Human tumor suppressor gene” (Garvan Institute of Medical Research, priority 1997, dated 2006)
